The source of these data is publication PMC8745342, “In Vitro and In Silico Kinetic Studies of Patented 1,7-diEthyl and 1,7-diMethyl Aminoalkanol Derivatives as New Inhibitors of Acetylcholinesterase” (International Journal of Molecular Sciences, 2021).

The test system of one experiment is AChE. The conditions noted are these: model AChE inhibitors; read-out: IC50 (inhibition potency); cited from earlier work.
The target in experiment [1] is T1, Acetylcholinesterase human (AChE) (Homo sapiens, UniProt P22303).
T1 construct: purchased Sigma-Aldrich (Poznań, Poland)
T1 sequence (P22303 32-614): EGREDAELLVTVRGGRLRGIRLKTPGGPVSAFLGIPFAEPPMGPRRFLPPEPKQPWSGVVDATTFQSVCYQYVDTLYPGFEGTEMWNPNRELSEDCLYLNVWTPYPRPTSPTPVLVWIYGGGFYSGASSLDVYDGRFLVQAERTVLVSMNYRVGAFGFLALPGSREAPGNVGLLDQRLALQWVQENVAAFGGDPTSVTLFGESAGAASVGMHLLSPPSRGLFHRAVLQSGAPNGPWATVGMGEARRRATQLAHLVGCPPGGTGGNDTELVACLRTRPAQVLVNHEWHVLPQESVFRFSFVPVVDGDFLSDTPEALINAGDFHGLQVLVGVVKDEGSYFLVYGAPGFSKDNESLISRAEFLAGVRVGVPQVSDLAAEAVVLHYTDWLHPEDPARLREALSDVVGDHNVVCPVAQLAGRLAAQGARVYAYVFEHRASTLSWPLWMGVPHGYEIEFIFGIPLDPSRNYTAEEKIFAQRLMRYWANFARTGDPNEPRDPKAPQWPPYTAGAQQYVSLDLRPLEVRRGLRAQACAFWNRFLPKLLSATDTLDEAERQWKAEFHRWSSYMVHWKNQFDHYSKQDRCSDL
Kind of experiment: AChE inhibition kinetics, Ellman's method combined with capillary electrophoresis. The conditions noted are these: for Tilt Angle of Lineweaver-Burk line: acetylthiocholine 0.36–46.00 mM, n = 6. The format is biochemical. From the text: In this work, we used the combined Ellman’s method with the capillary electrophoresis method developed by us for the determination of 4,4-dithio-bis-acid nitrobenzoic (DBAN) (main enzyme reaction product) in the presence of acetylthiocholine (ACth), 5-thio-2-nitrobenzoic acid (NTB), 5,5′-dithio-bis-2-nitrobenzoic acid (DTNB), acetylcholinesterase (AChE) and inhibitors (I), (II), (III) and (IV) of acetylcholinesterase. For the development of this method, we optimized the buffer pH, separating background electrolyte (BGE) concentration, wavelength, temperature, and voltage. […] All these separation systems were tested to achieve the best separation parameters, resolution, and analysis time for all components in the reaction mixture. […] Separation was carried out at 15 kV. Each sample was added to the capillary under hydrodynamic injection.
The samples were injected under 5 psi pressure for 3 s. The experiments were performed under constant current conditions (85 μA). […] Before the assay, the capillary was conditioned with 0.1 M NaOH for 10 min at 10 psi and with H2O for 10 min at 10 psi. Then, it was electro conditioned with the running buffer for 20 min at +10 kV and pressure-conditioned with the running buffer for 10 min at 10 psi. Before each injection, the capillary was washed with 1 M NaOH for 2 min, then with H2O for 2 min, and finally with BGE for 2 min. At the end of each working day, the capillary was rinsed for 10 min with 0.1 M NaOH, 10 min with BGE, and 10 min with deionized water at 15 psi. Then, the capillary was exposed to air for 10 min at 20 psi and left empty.
Sample mixtures containing 4,4-dithio-bis-acid nitrobenzoic (DBAN) (main enzyme reaction product) in the presence of acetylthiocholine (ACth), 5-thio-2-nitrobenzoic acid (NTB), 5,5′-dithio-bis-2-nitrobenzoic acid (DTNB), acetylcholinesterase (AChE) and inhibitors (I), (II), (III) and (IV) were introduced automatically by pressure injection (with 2 psi pressure for 5 s on the sample solution). At the day’s end, vials with anode and cathode buffer were emptied and running buffer was filled again at the start of the next day before the analysis.
Acetylcholinesterase activity was determined according to the method by Ellman et al. and according to the procedure described by Rosilene R et al. but slightly modified. […] The tubes containing solutions were preincubated for 2 min at 25 °C. Then, 0.1 mL […] AChE was introduced into tubes 1–9, at an interval of 1 min. All 10 samples were incubated for 3 min at 25 °C. After incubation, the analytical samples were introduced into the capillary.
The inhibition constants (Ki) were calculated from the plotted Lineweaver–Burk curves for the four concentrations of the inhibitors (I), (II), (III) and (IV). The method was based on two steps (Figure 8).
A general note: Ellman's reagent forms a yellow product with free thiols.

Where [2] appears, read: inhibitor 0.08 mM, acetylthiocholine 0.36 mM.
Setting [3] is: inhibitor 0.08 mM, acetylthiocholine 0.72 mM.
The mark [4] stands for this setting: inhibitor 0.08 mM, acetylthiocholine 1.44 mM.
Setting [5] is: inhibitor 0.08 mM, acetylthiocholine 2.88 mM.
Setting [6] is: inhibitor 0.08 mM, acetylthiocholine 5.75 mM.
The mark [7] stands for this setting: inhibitor 0.08 mM, acetylthiocholine 11.50 mM.
Setting [8] is: inhibitor 0.08 mM, acetylthiocholine 23.00 mM.
Where [9] appears, read: inhibitor 0.08 mM, acetylthiocholine 34.50 mM.
Setting [10] is: inhibitor 0.08 mM, acetylthiocholine 46.00 mM.

Regarding `CNC(=O)Oc1ccc2c(c1)[C@]1(C)CCN(C)[C@@H]1N2C` [Physostigmine], in the experiment on AChE, the IC50 is […].

As for `CCN(C)C(=O)Oc1cccc([C@H](C)N(C)C)c1` [Rivastigmine], in the experiment with AChE, the IC50 is […].

`CC(C)NCC(O)CN1C(=O)C2C(C1=O)C1(C)C(=O)C2(C)C(c2ccccc2)=C1c1ccccc1` (stereo not drawn) [Compound (III)]: the “type of AChE inhibition” value in experiment [1] (from Lineweaver-Burk plots, Km and Vmax) is reported as “competitive”. In addition, the IC50 in experiment [1] (from activity (%) versus inhibitor concentration plots) is 33 ± 1 µM. Besides, the Vmax was 0.63 ± 0.01 mM/min in experiment [1] (inhibitor 0.01 mM); 0.63 ± 0.02 mM/min in experiment [1] (inhibitor 0.02 mM); 0.64 ± 0.03 mM/min in experiment [1] (inhibitor 0.04 mM); 0.64 ± 0.03 mM/min in experiment [1] (inhibitor 0.06 mM); 0.63 ± 0.02 mM/min in experiment [1] (inhibitor 0.08 mM). For the same molecule, the “Tilt Angle of Lineweaver-Burk line” value in experiment [1] (inhibitor 0.01 mM) came to 60.01 ± 0.03 °; in experiment [1] (inhibitor 0.02 mM) it was 62.28 ± 0.03 °; in experiment [1] (inhibitor 0.04 mM), 67.38 ± 0.04 °; in experiment [1] (inhibitor 0.06 mM), 70.42 ± 0.02 °; in experiment [1] (inhibitor 0.08 mM) it was 71.50 ± 0.03 °. Further, the “1/Vo, mean” value is reported as 10.1 min/mM in experiment [1] (setting [2]); 5.70 min/mM in experiment [1] (setting [3]); 3.55 min/mM in experiment [1] (setting [4]); 2.40 min/mM in experiment [1] (setting [5]); 2.05 min/mM in experiment [1] (setting [6]); 1.80 min/mM in experiment [1] (setting [7]). Also, the “1/Vo, mean” value in experiment [1] (setting [8]) was 1.70 min/mM; in experiment [1] (setting [9]) it was 1.55 min/mM; in experiment [1] (setting [10]), 1.50 min/mM. In addition, the “Peak area of product (4,4-dithio-bis-acid nitrobenzoic), mean” value in experiment [1] (setting [2]) was found to be 39497; in experiment [1] (setting [3]) it was 72431; in experiment [1] (setting [4]), 102230; in experiment [1] (setting [5]), 135840; in experiment [1] (setting [6]), 164404; in experiment [1] (setting [7]), 183545. Moreover, the “Peak area of product (4,4-dithio-bis-acid nitrobenzoic), mean” value is on record as 196660 in experiment [1] (setting [8]), 198790 in experiment [1] (setting [9]) and 199716 in experiment [1] (setting [10]). Further, the “V0 (reaction speed), mean” value was determined as 0.10 mM/min in experiment [1] (setting [2]); 0.18 mM/min in experiment [1] (setting [3]); 0.28 mM/min in experiment [1] (setting [4]); 0.42 mM/min in experiment [1] (setting [5]); 0.49 mM/min in experiment [1] (setting [6]); 0.56 mM/min in experiment [1] (setting [7]). Moreover, the “V0 (reaction speed), mean” value is given as 0.59 mM/min in experiment [1] (setting [8]), 0.65 mM/min in experiment [1] (setting [9]) and 0.64 mM/min in experiment [1] (setting [10]). The “amount of 4,4-dithio-bis-acid nitrobenzoic (DBAN) product in the presence of inhibitor” value in experiment [1] (inhibitor 0.08 mM, acetylthiocholine 1.44 mM, 0.66 mM without inhibitors) worked out at 0.41 mM.

The IC50 is the concentration needed to halve the response being measured. A word on the Vmax: it is the top rate of the reaction or transport when substrate is in excess.
